Assay [1] deals with human A2b adenosine receptor (Homo sapiens (Human), UniProt P29275). Briefly: A2b radioligand filtration binding assay (tritiated proprietary A2b antagonist, HEK293 membranes). The following applies: for IC50: unstarred values: radioligand binding. As to the method: Measurement of A2b Binding Affinity
The reported affinity of the compounds of the invention for the human A2b adenosine receptor was determined experimentally using a radioligand filtration binding assay. This assay measures the amount of binding of a tritiated proprietary A2b receptor antagonist, in the presence and absence of a compound of the invention, to membranes made from HEK293 cells recombinantly expressing the human A2b adenosine receptor (Perkin Elmer, Cat. No. ES-013-C).
The filter plate was incubated for at least 1 hour at 55° C. and allowed to dry. The bottom of the filter plate was then sealed with backing tape. […] The plates were then incubated for at least 20 minutes, and then the amount of radioactivity remaining in each well was determined using a TopCount® (Perkin Elmer) scintillation counter. After normalization to total and non-specific binding, the percent effect at each compound concentration was calculated. The plot of percent effect versus the log of compound concentration was analyzed electronically using a 4-parameter logistic fit based on the Levenberg-Marquardt algorithm to generate IC50 values.

Assay [2] deals with human A2a adenosine receptor (Homo sapiens (Human), UniProt P29274). Briefly: A2a receptor affinity radioligand binding assay ([3H] SCH58261, membranes from HEK293 or CHO cells). The following applies: unstarred values: radioligand binding. The protocol: The A2a receptor affinity binding assay measured the amount of binding of a tritiated ligand with high affinity for the A2a adenosine receptor to membranes made from HEK293 or CHO cells recombinantly expressing the human A2a adenosine receptor, in the presence of varying concentrations of a compound of the invention.
Sequence of human A2a adenosine receptor (P29274 whole entry): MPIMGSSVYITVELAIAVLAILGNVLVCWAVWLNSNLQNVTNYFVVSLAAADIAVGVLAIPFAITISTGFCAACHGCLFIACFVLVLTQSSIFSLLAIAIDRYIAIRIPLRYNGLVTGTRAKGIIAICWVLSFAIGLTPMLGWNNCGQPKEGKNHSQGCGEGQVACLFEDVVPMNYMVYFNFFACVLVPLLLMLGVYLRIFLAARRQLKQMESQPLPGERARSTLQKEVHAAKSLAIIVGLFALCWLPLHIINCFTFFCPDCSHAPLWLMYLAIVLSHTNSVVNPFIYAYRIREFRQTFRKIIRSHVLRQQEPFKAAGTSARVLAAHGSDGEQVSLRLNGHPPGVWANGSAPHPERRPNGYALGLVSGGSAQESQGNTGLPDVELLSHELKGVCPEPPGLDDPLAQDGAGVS
Measurement of A2a Binding Affinity Using Radioligand Binding
148 μL, (5 μg/mL) membranes (Perkin Elmer, Cat. No. RBHA2aM4001A) and 2 μL compounds of the invention to be tested (test compound) were transferred to individual wells of a 96-well polypropylene assay plate and incubated for 15 to 30 minutes at room temperature. [^3H] SCH58261 ((7-(2-phenylethyl)-5-amino-2-(2-furyl)-pyrazolo-[4,3-e]-1,2,4-triazolo[1,5-c]pyrimidine)) was diluted in assay buffer (50 mM Tris pH 7.4, 10 mM MgCl2, 0.005% Tween20) to a concentration of 4 nM and 50 μL transferred to each well of the assay plate. […] The assay plate was incubated at room temperature for 60 minutes with agitation. […] Filtering was achieved by aspirating the contents of the assay plate for 5 seconds, then washing and aspirating the contents three times with ice-cooled wash buffer (50 mM Tris-HCl pH 7.4, 150 mM NaCl) and allowing the vacuum manifold to dry the plate for 30 seconds. The filter plate was incubated for at least 1 hour at 55° C. and allowed to dry. The bottom of the filter plate was sealed with backing tape. 40 μL. […] The plate was incubated for at least 20 minutes, and then the amount of radioactivity remaining in each well was determined using a TopCown® (Perkin Elmer) scintillation counter. After normalization to total and non-specific binding, the percent effect at each compound concentration was calculated. The plot of percent effect versus the log of compound concentration was analyzed electronically using a 4-parameter logistic fit based on the Levenberg-Marquardt algorithm to generate IC50 values.

Sequence of human A2b adenosine receptor (P29275 whole entry): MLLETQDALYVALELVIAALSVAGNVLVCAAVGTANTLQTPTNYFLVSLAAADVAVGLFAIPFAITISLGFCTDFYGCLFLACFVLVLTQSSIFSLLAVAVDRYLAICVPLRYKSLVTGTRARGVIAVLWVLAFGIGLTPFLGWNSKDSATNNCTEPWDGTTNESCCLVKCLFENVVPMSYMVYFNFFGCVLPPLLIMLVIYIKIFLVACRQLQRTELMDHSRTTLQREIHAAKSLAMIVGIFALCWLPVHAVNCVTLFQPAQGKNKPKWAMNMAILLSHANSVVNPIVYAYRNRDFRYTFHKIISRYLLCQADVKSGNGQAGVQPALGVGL

As a reminder, the IC50 is the concentration needed to halve the response being measured. Higher therefore signals weaker potency in that assay. `COc1cccc2c1nc(N)n1nc([C@@H]3CCN(c4cnn(CC5CC5)c4)C3)nc21` [Example 162, (R)-2-(1-(1-(cyclopropylmethyl)-1H-pyrazol-4-yl)pyrrolidin-3-yl)-7-methoxy[1,2,4]triazolo[1,5-c]quinazolin-5-amine]: the figures for the IC50 in assay [1] and in assay [2] were 17.6 nM and 7.8 nM, respectively.

Consider `CCc1ccc2c(c1)nc(N)n1nc([C@@H]3CC[C@H](C)N(c4cnn(CC(C)(C)O)c4)C3)nc21` [Example 207, 1-(4-((2S,5R)-5-(5-amino-8-ethyl-[1,2,4]triazolo[1,5-c]quinazolin-2-yl)-2-methylpiperidin-1-yl)-1H-pyrazol-1-yl)-2-methylpropan-2-ol], for which the half-maximal inhibitory concentration (IC50) is 125 nM in assay [1] and 2.8 nM in assay [2].

For the compound `COc1cccc2c1nc(N)n1nc([C@@H]3CCC4CCC3N4c3cnn(C)c3)nc21` (mixture of isomers) [Example 130B], the half-maximal inhibitory concentration (IC50) in assay [1] was 3520 nM; in assay [2] it was 10.3 nM.

On to `COc1cccc2c1nc(N)n1nc([C@@H]3CCCN(c4cnc(C5CC5)cn4)C3)nc21` [Example 105, (R)-2-(1-(5-cyclopropylpyrazin-2-yl)piperidin-3-yl)-7-methoxy-[1,2,4]triazolo[1,5-c]quinazolin-5-amine], for which the IC50 turned out to be 165 nM in assay [1] and 0.7 nM in assay [2].

As for `COc1cccc2c1nc(N)n1nc([C@@H]3CCCN(c4cnn(CC5(O)CCC5)c4)C3)nc21` [Example 23, (R)-1-((4-(3-(5-amino-7-methoxy-[1,2,4]-triazolo[1,5-c]quinazolin-2-yl)piperidin-1-yl)-1H-pyrazol-1-yl)methyl)cyclobutan-1-ol], the IC50 in assay [1] was 64.2 nM; in assay [2] it was 1 nM.

Consider `COc1cccc2c1nc(N)n1nc([C@@H]3CCCN(c4cn(C)nc4C(F)(F)F)C3)nc21` [Example 51, (R)-7-methoxy-2-(1-(1-methyl-3-(trifluoromethyl)-1H-pyrazol-4-yl)piperidin-3-yl)-[1,2,4]triazolo[1,5-c]quinazolin-5-amine], for which the figures for the IC50 in assay [1] and in assay [2] were 85.9 nM and 0.1 nM, respectively.

In the case of `COc1cccc2c1nc(N)n1nc([C@@H]3CCCN(c4ncn(CC(C)(C)O)n4)C3)nc21` [Example 64, (R)-1-(3-(3-(5-amino-7-methoxy[1,2,4]triazolo[1,5-c]quinazolin-2-yl)piperidin-1-yl)-1H-1,2,4-triazol-1-yl)-2-methylpropan-2-ol], the IC50 in assay [1] stood at 374 nM; in assay [2], 0.1 nM.

Consider `COc1ccc2c(c1)nc(N)n1nc(C3CCCCN(c4cnn(CC(C)(C)O)c4)C3)nc21` (stereo not drawn) [Example 217, 1-(4-(3-(5-amino-8-methoxy-[1,2,4]triazolo[1,5-c]quinazolin-2-yl)azepan-1-yl)-1H-pyrazol-1-yl)-2-methylpropan-2-ol], for which the IC50 in assay [1] was found to be 207 nM; in assay [2], 4.6 nM.

Consider `COc1ccc2c(c1)nc(N)n1nc([C@@H]3CC[C@H](C)N(c4cnn([C@@H](C)C(C)(C)O)c4)C3)nc21` [Example 211A, (S)-3-(4-((2S,5R)-5-(5-amino-8-methoxy-[1,2,4]triazolo[1,5-c]quinazolin-2-yl)-2-methylpiperidin-1-yl)-1H-pyrazol-1-yl)-2-methylbutan-2-ol], for which the values for the concentration for half-maximal inhibition (IC50) in assay [1] and in assay [2] were 3.4 nM and 0.5 nM, respectively.

Turning to `COc1ccc2c(c1)nc(N)n1nc([C@@H]3C[C@@H](C)CN(c4cnn(CC(C)(C)O)c4)C3)nc21` [Example 195B], the figures for the IC50 in assay [1] and in assay [2] were 9690 nM and 1.7 nM, respectively.

`Cc1ccc2c(c1)nc(N)n1nc(C3CCCN(c4cnn(C)c4)C3)nc21` (single isomer, unassigned) [Example 199, (R or S)-8-methyl-2-(1-(1-methyl-1H-pyrazol-4-yl)piperidin-3-yl)-[1,2,4]triazolo[1,5-c]quinazolin-5-amine]: the values for the IC50 in assay [1] and in assay [2] were 257 nM and 22.5 nM, respectively.

In the case of `COc1cccc2c1nc(N)n1nc([C@@H]3CCC[C@H](c4cnn(C)c4)C3)nc21` [Example 136D], the IC50 in assay [1] was 1980 nM; in assay [2], 29 nM.

For `COc1ccc2c(nc(N)n3nc(C4CCCN(c5cnn(C)c5)C4)nc23)c1F` (single isomer, unassigned) [Example 166, (R or S)-7-fluoro-8-methoxy-2-(1-(1-methyl-1H-pyrazol-4-yl)piperidin-3-yl)-[1,2,4]triazolo[1,5-c]quinazolin-5-amine], the IC50 in assay [1] came out at 234 nM; in assay [2], 18 nM.

Consider `COc1cccc2c1nc(N)n1nc([C@@H]3CCCN(c4cnn([C@H]5C[C@@](C)(O)C5)c4)C3)nc21` [Example 35, (R)-3-(4-(3-(5-amino-7-methoxy-[1,2,4]triazolo[1,5-c]quinazolin-2-yl)piperidin-1-yl)-1H-pyrazol-1-yl)-1-methylcyclobutan-1-ol], for which the values for the IC50 in assay [1] and in assay [2] were 41.9 nM and 0.7 nM, respectively.

In the case of `COc1cccc2c1nc(N)n1nc(C3CC(F)CN(c4cnn(CC(C)(C)O)c4C)C3)nc21` (stereo not drawn) [Example 152, 1-(4-(3-(5-amino-7-methoxy-[1,2,4]triazolo[1,5-c]quinazolin-2-yl)-5-fluoropiperidin-1-yl)-5-methyl-1H-pyrazol-1-yl)-2-methylpropan-2-ol], in assay [1] (@ 10000 nM, unstarred), the “A2B binding % inh. @ 10000 nM” value is 38% inh. @ 10000 nM. Besides, the IC50 in assay [2] stood at 249 nM.

On to `COc1cccc2c1nc(N)n1nc([C@@H]3CCCN(c4nn(C)nc4C)C3)nc21` [Example 70, (R)-2-(1-(2,5-dimethyl-2H-1,2,3-triazol-4-yl)piperidin-3-yl)-7-methoxy-[1,2,4]triazolo[1,5-c]quinazolin-5-amine], for which the IC50 in assay [1] was determined as 151 nM; in assay [2] it was 0.8 nM.

Regarding `CCn1cc(N2C[C@@H](c3nc4c5cccc(OC)c5nc(N)n4n3)CC[C@@H]2C)cn1` [Example 140C], the IC50 is 11.2 nM in assay [1] and 0.6 nM in assay [2].

In the case of `COc1ccc2c(c1)nc(N)n1nc([C@@H]3CCCN(c4cn(CC(C)(C)O)nc4C)C3)nc21` [Example 180, (R)-1-(4-(3-(5-amino-8-methoxy-[1,2,4]triazolo[1,5-c]quinazolin-2-yl)piperidin-1-yl)-3-methyl-1H-pyrazol-1-yl)-2-methylpropan-2-ol], the IC50 in assay [1] was determined as 250 nM; in assay [2] it was 1 nM.

For the compound `COc1cccc2c1nc(N)n1nc([C@@H]3CCCN(c4cnn(CC(C)(C)O)c4C)C3)nc21` [Example 33, (R)-1-(4-(3-(5-amino-7-methoxy-[1,2,4]triazolo[1,5-c]quinazolin-2-yl)piperidin-1-yl)-5-methyl-1H-pyrazol-1-yl)-2-methylpropan-2-ol], the IC50 in assay [1] is 320 nM; in assay [2], 0.1 nM.

For the compound `COc1ccc2c(c1)nc(N)n1nc([C@@H]3CCCN(c4cnn(CC5(CF)COC5)c4)C3)nc21` [Example 183, (R)-2-(1-(1-((3-(fluoromethyl)oxetan-3-yl)methyl)-1H-pyrazol-4-yl)piperidin-3-yl)-8-methoxy-[1,2,4]triazolo[1,5-c]quinazolin-5-amine], the IC50 in assay [1] turned out to be 4070 nM; in assay [2] it was 157 nM.

Consider `COc1cccc2c1nc(N)n1nc([C@@H]3CCCN(c4cnn([C@H]5CCCC[C@H]5O)c4)C3)nc21` [Example 24, (1R,2S)-2-(4-((R)-3-(5-amino-7-methoxy-[1,2,4]triazolo[1,5-c]quinazolin-2-yl)piperidin-1-yl)-1H-pyrazol-1-yl)cyclohexan-1-ol], for which the results for the half-inhibitory concentration (IC50) in assay [1] and in assay [2] were 6.9 nM and 2.9 nM, respectively.

On to `COc1cccc2c1nc(N)n1nc(C3CN(c4cnn(CC(C)(C)O)c4C)CC(F)(F)C3)nc21` (single isomer, unassigned) [Example 159B, (R or S)-1-(4-(5-(5-amino-7-methoxy-[1,2,4]triazolo[1,5-c]quinazolin-2-yl)-3,3-difluoropiperidin-1-yl)-5-methyl-1H-pyrazol-1-yl)-2-methylpropan-2-ol], for which the values for the IC50 in assay [1] and in assay [2] were 792 nM and 0.1 nM, respectively.

In the case of `COc1cccc2c1nc(N)n1nc([C@@H]3CCO[C@H](c4cnn(C)c4)C3)nc21` [Example 139D], the IC50 is 5290 nM in assay [1] and 58.3 nM in assay [2].

Consider `COc1cccc2c1nc(N)n1nc([C@H]3CCC[C@@H](c4cnn(C)c4)C3)nc21` (single isomer, unassigned) [Example 136C], for which the IC50 amounted to 157 nM in assay [1] and 1.2 nM in assay [2].
